{"source": "patent US12390482B2", "about": "“Neurolytic agents and methods of using and identifying same” (priority 2021, dated 2025)", "key": {"[1]": {"test_system": "Sarm1 KO DRG neurons expressing W103A, R157A or K193R SARM1 mutants or wildtype SARM1", "test": "Axon degeneration in Sarm1 KO DRG neurons infected with lentivirus expressing wildtype or allosteric pocket mutant SARM1", "assay_type": "cell-based, mouse", "details": "3-AP 300 μM", "protocol": "(§1) DRG neuron culture: Mouse DRG culture was as described previously. Mouse DRGs were dissected at embryonic day 13.5. Approximately 50 ganglia were collected from each embryo and dissociated in 0.05% Trypsin containing 0.02% EDTA (Gibco) at 37° C. for 20 min. The DRG neurons were washed 3 times with DRG culture medium after incubation with Trypsin. Cells were seeded as spot cultures in 96-tissue culture plates (Corning) coated with 0.1 mg/ml poly-D-lysine and 0.1 mg/ml laminin. They were cultured in Neurobasal (Gibco) containing 2% B27 (Invitrogen), 100 ng/ml 2.5S NGF (Harlan Bioproducts), and 1 μM 5-fluoro-2′-deoxyuridine/1 μM uridine. The culture medium was exchanged with fresh DRG culture medium every 2-3 days. Lentiviruses were added 3 days after seeding (DIV3).\nLentivirus production: Lentivirus production was performed as described previously. HEK 293T cells were seeded with the density of 1×10^6 in 35 mm well tissue culture plate (Corning). […]\nQuantification of axon degeneration: After culture for 7 days, axotomy was performed by cutting DRG axons manually with a razor blade. […] Axon degeneration indexes were calculated from these bright-field images using ImageJ (NIH). The axon degeneration index was calculated as the ratio of fragmented axon areas as previously described. Indexes were calculated as the average of six fields per well."}, "[2]": {"test_system": "WT DRG neurons", "test": "Metabolite measurement by LC-MS/MS in WT DRG neurons", "assay_type": "cell-based, mouse", "protocol": "as §1\nMetabolite measurement using LC-MS/MS: Lyophilized samples were reconstituted with 50 μl of 5 mM ammonium formate and centrifuged at 12,000 g for 10 min. Cleared supernatants were transferred to sample vials. Serial dilutions of standards for each metabolite in 5 mM ammonium formate were used for calibration. HPLC-mass spectrometry analysis was performed on an Agilent 1290 Infinity II liquid chromatography system (Agilent Technologies, Santa Clara, CA) with a flexible pump, multisampler, sample cooler and an MCT containing an Atlantis T3 column (2.1×150 mm, 3 μm) and VanGuard guard cartridge (2.1 mm×5 mm, 3 μm) (Waters, Milford, MA), coupled to an Agilent 6470 Triple Quad mass spectrometer (Agilent Technologies, Santa Clara, CA). The mobile phase (0.15 ml/min) was 5 mM ammonium formate in water (A) and 100% methanol (B). The column was equilibrated with 0% B, maintained after injection for 2 min, then a linear gradient to 20% B applied over 4 min. The column was then ramped to 50% B over 2 min, and held at 50% for 2 min, then reverted back to 0% B over the next 5 min and allowed to re-equilibrate at 0% B for 9 min. The total run time was 24 min per sample. […] Raw data were acquired and quantified using MassHunter Workstation software version B.08.00 for 6400 Series Triple Quadrupole (Agilent Technologies, Santa Clara, CA)."}, "[3]": {"test_system": "Sarm1 KO mice", "test": "cADPR levels in sciatic nerve after IP injection, Sarm1 KO mice", "assay_type": "in vivo, mouse", "details": "similar IP injections", "protocol": "(§2) Mice: All experiments were performed in accordance with the protocols of the Institutional Animal Care and Use Committee of Washington University in St. Louis and the guidelines for the Care and Use of Laboratory Animals of the National Institutes of Health. Mice were housed on a 12 hr light dark cycle with less than 5 mice per cage and with water and food available at all times. Male and female mice were used for all experiments. 5-week old mice were used for IP injection and 5-6-month old mice were used for Surgifoam wrap treatments. Sarm1 KO mice were a gift from Macro Colonna at Department of Pathology and Immunology, Washington University School of Medicine in St. Louis, and C57BL/6 mice were purchased from Jackson Laboratory.\n(§3) Metabolite measurement using LC-MS/MS: Lyophilized samples were reconstituted with 50 μl of 5 mM ammonium formate and centrifuged at 12,000 g for 10 min. Cleared supernatants were transferred to sample vials. Serial dilutions of standards for each metabolite in 5 mM ammonium formate were used for calibration. […] Raw data were acquired and quantified using MassHunter Workstation software version B.08.00 for 6400 Series Triple Quadrupole (Agilent Technologies, Santa Clara, CA). […]"}, "[4]": {"test_system": "sciatic nerve of Sarm1 KO mice", "test": "Local application to sciatic nerve using Surgifoam wrap, Sarm1 KO mice", "assay_type": "in vivo, mouse", "details": "500 mM 3-AP, seven days", "protocol": "as §2\n(§4) IP injection and local application of 3-AP to sciatic nerve using Surgifoam wrap 5 week-old mice were used for IP injection experiment. Suitable skin incisions were made at the mid-thigh level of […], followed by a small incision or blunt dissection to the muscle fascia to permit retraction of the biceps femoris and gluteus superficialis muscles to expose the sciatic nerve. The nerve was carefully separated from surrounding connective tissue and then a 0.5×1 cm piece of sterile absorbable hemostatic material (Surgifoam) soaked in 500 mM 3-AP (or saline control) was wrapped around the sciatic nerve. […]"}, "[5]": {"test_system": "Sarm1 KO DRG neurons", "test": "Axon degeneration and neuronal death in cultured Sarm1 KO DRG neurons", "assay_type": "cell-based, mouse", "details": "escalating doses, even at 1 mM", "protocol": "as §1\n(§5) Quantification of axon degeneration: After culture for 7 days, axotomy was performed by cutting DRG axons manually with a razor blade. After axon transection, bright-field images of distal axons were taken using the Operetta automated imaging system (PerkinElmer). Axon degeneration indexes were calculated from these bright-field images using ImageJ (NIH). The axon degeneration index was calculated as the ratio of fragmented axon areas as previously described. Indexes were calculated as the average of six fields per well."}, "[6]": {"test_system": "WT mice", "test": "Survival after IP injection of 3-AP, WT mice", "assay_type": "in vivo, mouse", "protocol": "as §2\n(§6) IP injection and local application of 3-AP to sciatic nerve using Surgifoam wrap 5 week-old mice were used for IP injection experiment. Suitable skin incisions were made at the mid-thigh level of 5 week-old mice, followed by a small incision or blunt dissection to the muscle fascia to permit retraction of the biceps femoris and gluteus superficialis muscles to expose the sciatic nerve. The nerve was carefully separated from surrounding connective tissue and then a 0.5×1 cm piece of sterile absorbable hemostatic material (Surgifoam) soaked in 500 mM 3-AP (or saline control) was wrapped around the sciatic nerve. Wound clips, and/or tissue adhesive were used to close the incision."}, "[7]": {"test_system": "WT mouse embryonic dorsal root ganglion (DRG) neurons", "test": "MTT assay of neuronal death in WT DRG neurons", "assay_type": "cell-based", "details": "12 hr treatment", "protocol": "as §1"}, "[8]": {"test_system": "sciatic nerve of WT mice", "test": "Local application to sciatic nerve using Surgifoam wrap, WT mice", "assay_type": "in vivo, mouse", "protocol": "as §2, §6\nTissue processing: Tibial nerves from both control and 3-AP treated sides was dissected out 7 days post-surgery. The distal 2 cm portion of the nerve was fixed in 4% paraformaldehyde for 1 hr at room temperature, then moved to 30% sucrose and embedded in OCT for cryosectioning in the following day. Immunocytochemistry was performed on tibial cryosections using NF200 (Sigma N4142, 1:1000) and MBP (Millipore MAB386, 1:100) followed by anti-rabbit-Alexa488 (1:500) and anti-rat-Cy3 (1:500). The proximal 2 cm portion of the sciatic nerves were fixed in 3% Glutaraldehyde for processing and embedding in epoxy/plastic. Toluidine blue thick sections (400-600 nm thickness) were cut and axon counting was performed using binary image analysis."}, "[9]": {"test_system": "Sarm1 KO DRG neurons", "test": "Metabolite measurement by LC-MS/MS in Sarm1 KO DRG neurons", "assay_type": "cell-based, mouse", "details": "3-AP-treated Sarm1 KO neurons", "protocol": "as §1\nMetabolite measurement using LC-MS/MS: Lyophilized samples were reconstituted with 50 μl of 5 mM ammonium formate and centrifuged at 12,000 g for 10 min. Cleared supernatants were transferred to sample vials. Serial dilutions of standards for each metabolite in 5 mM ammonium formate were used for calibration. […] Raw data were acquired and quantified using MassHunter Workstation software version B.08.00 for 6400 Series Triple Quadrupole (Agilent Technologies, Santa Clara, CA)."}, "[10]": {"test_system": "Sarm1 KO mice", "test": "Survival after IP injection of 3-AP, Sarm1 KO mice", "assay_type": "in vivo, mouse", "protocol": "as §2, §4"}, "[11]": {"test_system": "rabbits, dogs, mice and rats", "details": "early studies; could be blocked by administration of Nam; cited from earlier work"}, "[12]": {"test_system": "WT mouse embryonic dorsal root ganglion (DRG) neurons", "test": "Axon degeneration in cultured WT DRG neurons", "assay_type": "cell-based", "details": "WT DRG neurons", "protocol": "as §1\nas §5, with “Quantification of axon degeneration: After culture for 7 days, axotomy was performed by cutting DRG axons manually with a razor blade.” left out"}, "[13]": {"test_system": "SARM1", "test": "cADPR levels in sciatic nerve after IP injection, WT mice", "assay_type": "in vivo, mouse", "details": "275 mg/kg IP, 3 days post-administration", "protocol": "as §2, §3"}}}
{"smiles": "CC(=O)c1cccnc1", "note": "[3-AP, 3-acetylpyridine]", "values": [{"measurement": "axons of Sarm1 KO neurons expressing SARM1 W103A, R157A or K193R", "setting": "[1]; allosteric pocket mutants", "value": "remain intact"}, {"measurement": "axon degeneration in Sarm1 KO neurons expressing wildtype SARM1", "setting": "[1]; lentiviral wildtype SARM1", "value": "restores 3-AP-induced axon degeneration"}, {"measurement": "NAD+ and ATP levels", "setting": "[2]; 3-AP 300 μM, WT neurons", "value": "Substantial NAD^+ and ATP depletion"}, {"measurement": "decline in NMN", "setting": "[2]; within four hours, p<0.001, n=3", "value": "greater than 50%"}, {"measurement": "cADPR levels in the sciatic nerve", "setting": "[3]", "value": "no alteration in cADPR levels"}, {"measurement": "axon loss in treated nerve", "setting": "[4]", "value": "well protected from axon loss"}, {"measurement": "effect on axon degeneration and neuronal death", "setting": "[5]", "value": "no effect"}, {"measurement": "survival", "setting": "[6]; 275 mg/kg IP", "value": "generally survive"}, {"measurement": "survival", "setting": "[6]; 400 mg/kg IP", "value": "die rapidly"}, {"measurement": "lethality", "setting": "[6]; 500 mg/kg IP", "value": "rapidly lethal"}, {"measurement": "neuronal death (MTT assay)", "setting": "[7]", "value": "causes neuronal death at similar doses"}, {"measurement": "axon loss in tibial nerve distal to treatment site", "setting": "[8]; WT mice, 500 mM 3-AP, seven days, vs contralateral or saline-treated nerve", "value": "dramatic loss of axons"}, {"measurement": "gait after local treatment", "setting": "[8]; WT mice, Surgifoam soaked in 500 mM 3-AP on sciatic nerve", "value": "rapidly develop an abnormal gait"}, {"measurement": "axon damage in the proximal sciatic nerve", "setting": "[8]; WT mice, proximal to site of 500 mM 3-AP application", "value": "no detectable axon damage"}, {"measurement": "systemic harm after local application", "setting": "[8]; local application to peripheral nerve", "value": "without apparent systemic harm"}, {"measurement": "changes in the levels of NAD+, ATP, or cADPR", "setting": "[9]", "value": "no significant changes"}, {"measurement": "lethality", "setting": "[10]; 275 mg/kg IP, n=5", "value": "no lethality"}, {"measurement": "survival and phenotype", "setting": "[10]; up to 500 mg/kg IP", "value": "survive and have no obvious phenotype"}, {"measurement": "toxicity on administration to animals", "setting": "[11]", "value": "severe neurotoxicity and death"}, {"measurement": "doses at which axons rapidly degenerate at a rate similar to that after transection", "setting": "[12]", "value": "above 250 μM"}, {"measurement": "dose at which axons begin to degenerate slowly", "setting": "[12]; axonal integrity at multiple time points", "value": 250, "unit": "µM"}, {"measurement": "increase of cADPR levels in the sciatic nerve", "setting": "[13]", "value": "3-4 fold"}]}
